Results reported in PubChem BioAssay (NCI).
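Following 48 hours of exposure in 96-well plates, responses at five concentrations were used to interpolate endpoints linearly. Definition used: TGI = concentration required for complete inhibition of growth.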

What was measured:
Assay in all cases: NCI tumour cell line growth inhibition, 48 h
[1] = system: 786-0 renal
[2] = system: A498 renal
[3] = system: A549 NSCLC
[4] = system: ACHN renal
[5] = system: CCRF-CEM leukemia
[6] = system: COLO 205 colon
[7] = system: DLD-1 colon
[8] = system: DMS 114 small cell lung
[9] = system: DMS 273 small cell lung
[10] = system: EKVX NSCLC
[11] = system: HCC-2998 colon
[12] = system: HCT-116 colon
[13] = system: HCT-15 colon
[14] = system: HL-60(TB) leukemia
[15] = system: HOP-18 NSCLC
[16] = system: HOP-62 NSCLC
[17] = system: HOP-92 NSCLC
[18] = system: HT29 colon
[19] = system: IGROV1 ovarian
[20] = system: K-562 leukemia
[21] = system: KM20L2 colon
[22] = system: LOX IMVI melanoma
[23] = system: LXFL 529 NSCLC
[24] = system: M14 melanoma
[25] = system: M19-MEL melanoma
[26] = system: MALME-3M melanoma
[27] = system: MOLT-4 leukemia
[28] = system: NCI-H226 lung
[29] = system: NCI-H23 lung
[30] = system: NCI-H460 lung
[31] = system: NCI-H522 lung
[32] = system: OVCAR-3 ovarian
[33] = system: OVCAR-4 ovarian
[34] = system: OVCAR-5 ovarian
[35] = system: OVCAR-8 ovarian
[36] = system: RPMI-8226 leukemia
[37] = system: RXF 393 renal
[38] = system: RXF-631 renal
[39] = system: SF-268 CNS
[40] = system: SF-295 CNS
[41] = system: SF-539 CNS
[42] = system: SK-MEL-2 melanoma
[43] = system: SK-MEL-28 melanoma
[44] = system: SK-OV-3 ovarian
[45] = system: SN12C renal
[46] = system: SNB-19 CNS
[47] = system: SNB-75 CNS
[48] = system: SNB-78 CNS
[49] = system: SW-620 colon
[50] = system: TK-10 renal
[51] = system: U251 CNS
[52] = system: UACC-257 melanoma
[53] = system: UACC-62 melanoma
[54] = system: UO-31 renal
[55] = system: XF 498 CNS
[56] = system: CAKI-1 renal
[57] = system: KM12 colon
[58] = system: SK-MEL-5 melanoma
[59] = system: SR leukemia

Measured: TGI

O=C(N/N=C/c1ccccc1O)N/N=C/c1ccccc1O
not listed: [56] | [57] | [58] | [59]
> 100 µM: all other assays above

COC(=O)/C(=N\NC(C)(C)C)C(C(=O)OC)C(=O)C(=O)Nc1cc(Cl)ccc1Cl (stereo not drawn)
not listed: [36]
> 100 µM: all other assays above
